Laboratory results from patent publication US7745495B2, “Pyridine ketones with herbicidal effect” (Syngenta Crop Protection, Inc., priority 2004, dated 2010).

Columns and labels:
Abutilon [1] = assay: Pre-emergence herbicidal action; format: in vivo; settings: rating 10=total damage, 0=no action; for Pre-emergent Herbicidal Activity: Abutilon: Table B4
Method: (§1) Monocotyledonous and dicotyledonous test plants are sown in standard soil in plastic pots. […] The test plants are then grown in a greenhouse under optimum conditions. After a test duration of 3 weeks, the test is evaluated in accordance with a scale of ten ratings (10=total damage, 0=no action). Ratings of from 10 to 7 (especially from 10 to 8) indicate good to very good herbicidal action.

Amaranthus = assay: Pre-emergence herbicidal action; format: in vivo; settings: rating 10=total damage, 0=no action; for Pre-emergent Herbicidal Activity: Amaranthus: Table B4
Method: as §1

Digitaria [2] = assay: Pre-emergence herbicidal action; format: in vivo; settings: rating 10=total damage, 0=no action; for Pre-emergent Herbicidal Activity: Digitaria: Table B4
Method: as §1

Echinochloa = assay: Pre-emergence herbicidal action; format: in vivo; settings: rating 10=total damage, 0=no action; for Pre-emergent Herbicidal Activity: Echinochloa: Table B4
Method: as §1

Panicum [3] = assay: Pre-emergence herbicidal action; format: in vivo; settings: rating 10=total damage, 0=no action; for Pre-emergent Herbicidal Activity: Panicum: Table B4
Method: as §1

Chenopodium [4] = assay: Pre-emergence herbicidal action; format: in vivo; settings: 250 g/ha; after 3 weeks; rating 10=total damage, 0=no action
Stellaria [5] = assay: Pre-emergence herbicidal action; format: in vivo; settings: 250 g/ha; after 3 weeks; rating 10=total damage, 0=no action
Corn = assay: Pre-emergent herbicidal activity on crop plant; format: in vivo; settings: Table B4, crop plant, rating 10=total damage, 0=no action
Method: as §1
(§2) In the following Table B3, the pre-emergent herbicidal activity of compound H-14 according to the invention is compared with 4 compounds according to the prior art. All compounds are structurally identical except for the nature of the alkylene linker attached to the pyridine ring.

Soya = assay: Pre-emergent herbicidal activity on crop plant; format: in vivo; settings: Table B4, crop plant, rating 10=total damage, 0=no action
Method: as §1, §2

Xanthium = assay: Pre-emergent herbicidal activity; format: in vivo; settings: Table B4, rating 10=total damage, 0=no action
Method: as §1
In the following Table B4, the pre-emergent herbicidal activity of compound H-3 according to the invention is compared with compound D according to the prior art. Both compounds are structurally identical except for the length of the alkylene linker attached to the pyridine ring.

Abutilon [6] = assay: Post-emergence herbicidal action; format: in vivo; settings: 250 g/ha; 4- to 6-leaf stage; after about 18 days; rating 10=total damage, 0=no action
Chenopodium [7] = assay: Post-emergence herbicidal action; format: in vivo; settings: 250 g/ha; 4- to 6-leaf stage; after about 18 days; rating 10=total damage, 0=no action
Digitaria [8] = assay: Post-emergence herbicidal action; format: in vivo; settings: 250 g/ha; 4- to 6-leaf stage; after about 18 days; rating 10=total damage, 0=no action
Ipomea = assay: Post-emergence herbicidal action; format: in vivo; settings: 250 g/ha; 4- to 6-leaf stage; after about 18 days; rating 10=total damage, 0=no action
Panicum [9] = assay: Post-emergence herbicidal action; format: in vivo; settings: 250 g/ha; 4- to 6-leaf stage; after about 18 days; rating 10=total damage, 0=no action
Setaria = assay: Post-emergence herbicidal action; format: in vivo; settings: 250 g/ha; 4- to 6-leaf stage; after about 18 days; rating 10=total damage, 0=no action
Sinapis = assay: Post-emergence herbicidal action; format: in vivo; settings: 250 g/ha; 4- to 6-leaf stage; after about 18 days; rating 10=total damage, 0=no action
Stellaria [10] = assay: Post-emergence herbicidal action; format: in vivo; settings: 250 g/ha; 4- to 6-leaf stage; after about 18 days; rating 10=total damage, 0=no action

COCCCc1nc(C(F)F)ccc1C(=O)C1C(=O)C2CCC(C2)C1=O (centres unmarked) [Compound H-3, 3-[6-Difluoromethyl-2-(3-methoxy-propyl)-pyridine-3-carbonyl]-bicyclo[3.2.1]octane-2,4-dione]
Pre-emergence herbicidal action: Abutilon (Abutilon [1]; 250 g/ha, after 3 weeks): 10 | Pre-emergent Herbicidal Activity: Abutilon (Abutilon [1]; 30 g/ha): 9 | Pre-emergent Herbicidal Activity: Abutilon (Abutilon [1]; 60 g/ha): 10 | Pre-emergence herbicidal action: Amaranthus (Amaranthus; 250 g/ha, after 3 weeks): 10 | Pre-emergent Herbicidal Activity: Amaranthus (Amaranthus; 30 g/ha): 9 | Pre-emergent Herbicidal Activity: Amaranthus (Amaranthus; 60 g/ha): 10 | Pre-emergence herbicidal action: Digitaria (Digitaria [2]; 250 g/ha, after 3 weeks): 10 | Pre-emergent Herbicidal Activity: Digitaria (Digitaria [2]; 30 g/ha): 9 | Pre-emergent Herbicidal Activity: Digitaria (Digitaria [2]; 60 g/ha): 9 | Pre-emergence herbicidal action: Echinochloa (Echinochloa; 250 g/ha, after 3 weeks): 10 | Pre-emergent Herbicidal Activity: Echinochloa (Echinochloa; 30 g/ha): 10 | Pre-emergent Herbicidal Activity: Echinochloa (Echinochloa; 60 g/ha): 10 | Pre-emergence herbicidal action: Panicum (Panicum [3]; 250 g/ha, after 3 weeks): 10 | Pre-emergent Herbicidal Activity: Panicum (Panicum [3]; 30 g/ha): 10 | Pre-emergent Herbicidal Activity: Panicum (Panicum [3]; 60 g/ha): 10 | Pre-emergence herbicidal action: Chenopodium (Chenopodium [4]): 10 | Pre-emergence herbicidal action: Stellaria (Stellaria [5]): 8 | Pre-emergent Herbicidal Activity: Corn (Corn; 30 g/ha): 0 | Pre-emergent Herbicidal Activity: Corn (Corn; 60 g/ha): 0 | Pre-emergent Herbicidal Activity: Soya (Soya; 30 g/ha): 0 | Pre-emergent Herbicidal Activity: Soya (Soya; 60 g/ha): 0 | Pre-emergent Herbicidal Activity: Xanthium (Xanthium; 30 g/ha): 7 | Pre-emergent Herbicidal Activity: Xanthium (Xanthium; 60 g/ha): 7 | Post-emergence herbicidal action: Abutilon (Abutilon [6]): 9 | Post-emergence herbicidal action: Chenopodium (Chenopodium [7]): 10 | Post-emergence herbicidal action: Digitaria (Digitaria [8]): 9 | Post-emergence herbicidal action: Ipomea (Ipomea): 8 | Post-emergence herbicidal action: Panicum (Panicum [9]): 10 | Post-emergence herbicidal action: Setaria (Setaria): 9 | Post-emergence herbicidal action: Sinapis (Sinapis): 9 | Post-emergence herbicidal action: Stellaria (Stellaria [10]): 9 | melting point: 45 to 46 °C
